Patent publication US6218438A, “Copolymer compositions for treating viral infections” (Supratek Pharma, Inc., priority 1999, dated 2001)

Columns and labels:
[1] = system: HIV-1 replication in cells; settings: Borkow et al. 1997; cited from earlier work
[2] = biological target: T1, HIV-1 reverse transcriptase (p51/p66 RT), RDDP activity (Human immunodeficiency virus type 1 group M subtype B, UniProt P03366); assay: Inhibition of RNA dependent DNA polymerase activity of RT (RT RDDP); format: biochemical
T1 construct: 10 ng of p51/p66 heterodimeric RT per assay were used
Description: (§1) BBNH and Fe(III)-BBNH complex at various concentrations were examined for the ability to inhibit RNA dependent and DNA dependent DNA polymerase activities as well as RNAse H activity of HIV-1 reverse transcriptase (RT RDDP, RT DDDP, and RT RNAse H, respectively). To analyze RT RDDP and RT DDDP the following reaction mixture (100 μl total volume) was used: 50 mM Tris-HCl (pH 7.8), 60 mM KCl, 10 mM MgCl2, 10 ng of p51/p66 RT, 0.1-0.5 units of template/primer, and 0.5-25 μM [^3 H]dNTP. Aliquots of the test compounds dissolved in DMSO were added to the reaction mixtures, incubated for 10-20 min. at 37° C. and than quenched with 500 μl of cold 20 mM sodium pyrophosphate in 10% dichloroacetic acid. After 10 min. on ice, the samples were filtered on Whatman 934-AH glass fiber filters and washed with 10% dichloroacetic acid and ethanol, and the radioactivity was determined by liquid scintillation analysis. To analyze RT RNAse H the following reaction mixture (50 μl total volume) was used: 5OmM Tris-HCl (pH 8.0), 60 mM KCl, 8 mM MgCl2, and variable amounts of ([^3 H]rG)-poly(dC). Generally, 10 ng of p51/p66 heterodimeric RT per assay were used. Aliquots of the test compounds dissolved in DMSO were added to the reaction mixtures, incubated for 20 min. at 37° C. and than quenched by placing the tubes on ice followed by the addition of 100 μl of cold 7% perchloric acid. After 10 min. on ice, the samples were centrifuged at 12,000 g for 15 min. 100 μl of the supernatants were carefully removed, and the radioactivity was determined by liquid scintillation analysis.

[3] = system: cells; assay: Cytotoxicity (general statement); format: cell-based
[4] = system: HIV-1 infection of MT2 cells; assay: Inhibition of HIV-1 infection of uninfected MT2 cells; format: cell-based; settings: Human immunodeficiency virus 1, compound in DMSO, 30 min before HIV
Description: BBNH and Fe(III)-BBNH complex at various concentrations were examined for the ability to inhibit HIV-1 infection of uninfected MT2 cells. Aliquots of a solution of the compounds in dimethyl sulfoxide were added to uninfected MT2 cells (2×10^5 cells/ml) in RPMI medium containing 10% fetal bovine serum to provide defined final concentrations of test compound. The cells and test compounds were incubated for 30 minutes at 37° C., then inoculated with a suspension of HIV virions. The cells, test compounds and HIV were incubated for 18 h at 37° C., then the cells were collected by centrifugation, washed, and resuspended in RPMI medium containing 10% fetal bovine serum and containing the same concentration of test compound as initially employed. The cells were then cultured at 37° C. (with culture medium changes as required). HIV infection was assessed by microscopic examination of HIV-induced cytopathicity (syncytium) and/or by analysis of HIV p24 antigen levels in the culture supernatants.

[5] = biological target: HIV IN (integrase) (Human immunodeficiency virus type 1 group M subtype B, UniProt P03366); assay: Inhibition of DNA-binding activity of HIV integrase; format: biochemical; settings: in vitro
[6] = biological target: HIV-1 RT (Human immunodeficiency virus type 1 BH10, UniProt P03366); settings: RDDP, RNase H, and DDDP; Borkow et al. 1997; cited from earlier work
[7] = biological target: T2, HIV-1 reverse transcriptase (p51/p66 RT), DDDP activity (Human immunodeficiency virus type 1 group M subtype B, UniProt P03366); assay: Inhibition of DNA dependent DNA polymerase activity of RT (RT DDDP); format: biochemical
T2 construct: 10 ng of p51/p66 heterodimeric RT per assay were used
Description: as §1

[8] = Cytotoxic activity against uninfected MT2 cells (XTT assay); format: cell-based, human; settings: human, 4 days at 37° C., in DMSO
Description: BBNH and Fe(III)-BBNH complex at various concentrations were examined for cytotoxic activity against uninfected MT2 cells. Aliquots of a solution of the compounds in dimethyl sulfoxide were added to the MT2 cells (2×10^5 cells/ml) in RPMI medium containing 10% fetal bovine serum to provide defined final concentrations of test compound. The cells and test compounds were cultured for 4 days at 37° C., in the presence of 5% CO2 and then cytotoxic effect of the compounds was analyzed by using the standard XTT assay. The CC50 calculated from the results were 10±0.5 μM for BBNH and more than 1000 μM for Fe(III)-BBNH.

[9] = biological target: T3, HIV-1 reverse transcriptase (p51/p66 RT), RNAse H activity (Human immunodeficiency virus type 1 group M subtype B, UniProt P03366); assay: Inhibition of RNAse H activity of RT; format: biochemical
T3 construct: 10 ng of p51/p66 heterodimeric RT per assay were used
Description: as §1

In the case of `CC(C)(C)c1ccc(C(=O)NN=Cc2c(O)ccc3ccccc23)cc1` [BBNH, N-(4-t-butylbenzoyl)-2-hydroxy-1-naphthaldehyde hydrazone, reference compound], the “inhibition of replication of HIV-1 in infected cells” value [1] is given as “inhibits replication of HIV-1 in infected cells”, the IC50 [2] is given as 1.9 ± 0.1 µM and the cytotoxicity [3] is given as “cytotoxic”. The IC50 [4] was 1.5 ± 0.5 µM, the IC50 [5] was about 5 µM and the “preincubation needed for maximal inhibition of IN” value ([5]; preincubation of the enzyme with BBNH) was 10 to 15 min. The “inhibition of all three enzymatic activities of HIV-1 RT in vitro” value [6] was “good inhibitor of all three enzymatic activities of HIV-1 RT in vitro”, the IC50 [7] was 12.5 ± 5 µM and the CC50 at 96 h [8] was 10 ± 0.5 µM. The IC50 ([9]; 10 min. preincubation) was 3.5 ± 0.8 µM, the IC50 ([9]; No preincubation) was over 50 µM and the “preincubation needed for maximal inhibition of RT RNase H” value ([9]; in vitro, preincubation of the enzyme with BBNH) was 10 to 15 min.
